Like-named read-outs stand apart in the source and are kept apart here.
Assays:
cytotoxicity assay, K562 = format: cell-based; settings: human, K562 cells
Method: (§1) The cytotoxicity assay was performed in accordance with the published protocols. The antimicrobial assay was performed according to the method described previously.

HUVECs = experiment: VEGF-induced tube formation assay (angiogenesis); format: cell-based, human; settings: VEGF 50 ng/mL, 6 h, read-out: IC50, inhibition of tube formation
Method: Human umbilical vascular endothelial cells (HUVECs) were purchased from the American Type Culture Collection (ATCC, Rockville, MD, USA), and cultured in EGM-2 (Lonza, Walkerswille, MD, USA) supplemented with 10% FBS and antibiotics-antimycotics (PSF). The cells were maintained at 37 °C under a humidified atmosphere containing 5% CO2. A 96-well plate was coated with Matrigel (Corning) for 30 min at 37 °C under a humidified atmosphere containing 5% CO2. HUVECs (1.8 × 10^4 cells/well) were mixed with the test compounds in 0.5% FBS EBM-2 medium with VEGF (50 ng/mL) or 0.5% FBS EBM-2 medium only for the VEGF negative control. The cells were incubated for 6 h and photographed using an inverted microscope (Olympus Optical Co. Ltd., Tokyo, Japan). Images were quantified with an angiogenesis analyzer using ImageJ software. Tube formation activity was calculated using the following formula: [(Total segment # (tested compound) − Total segment # (VEGF−)]/[Total segment # (VEGF+) − Total segment # (VEGF−)] × 100 (# stands for tubule segment number). The IC50 values were calculated through nonlinear regression analysis using TableCurve 2-D v5.01 (Systat Software Inc., San Jose, CA, USA). Cell viabilities were evaluated with the MTT assay. HUVECs (0.8 × 10^4 cells/well) were seeded into a 96-well plate and indicated for 1 day. The culture medium was replaced with serum-free medium, and the cells were incubated overnight. After starvation, the cells were treated with the test compounds and VEGF (50 ng/mL) in 2% FBS EBM-2 medium. Cells were incubated for a further 24 h, and MTT solution (final concentration of 500 μg/mL) was added to the cells to measure the cell viability. The formazan products were dissolved in DMSO. The absorbance of each well was measured at 570 nm using a VersaMax ELISA microplate reader (Molecular Devices, Sunnyvale, CA, USA).
Figure S55. Angiogenesis activities of herqueinone compounds purified from Penicillium herquei. Effects of 6 on VEGF-induced tube formation and cell viability. Tube formation activity was measured after cells were incubated with indicated concentrations of 6 on matrigel-coated 96wells for 6 h in the presence of VEGF (50 ng/mL) compared to control in the absence of VEGF. Cell viability was measured by MTT assay after treat with indicated concentrations of 6 in the presence of VEGF (50 ng/mL) for 24 h. The values are expressed as the means ± SD of triplicate tests. * p ≤ 0.05, ** p ≤ 0.01 and *** p ≤ 0.001.

RAW 264.7 cells = experiment: iNOS assay: inhibition of LPS-stimulated NO production (Griess reaction); format: cell-based, mouse; settings: 18 h
Method: Mouse macrophage RAW 264.7 cells obtained from the American Type Culture Collection (ATCC, Rockville, MD, USA) were cultured in Dulbecco’s modified Eagle’s medium (DMEM) supplemented with 10% heat-inactivated fetal bovine serum (FBS) with antibiotics-antimycotics (PSF; 100 units/mL penicillin G sodium, […] streptomycin, and 250 ng/mL amphotericin B). The cells were seeded in 24-well plates (2 × 10^5 cells/mL). The next day, the culture media was changed to 1% FBS-DMEM, and the samples were treated with the test compounds. After pretreatment with the drug for 1 h, 1 μg/mL lipopolysaccharides (LPS) was added to stimulate NO production. The cells were incubated for an additional 18 h, and the amount of NO produced in the supernatant was determined by Griess reaction. Then, the absorbance was measured at 540 nm, and the nitrite concentration was determined by comparison with a sodium nitrite standard curve. The percent inhibition was calculated using the following formula: [1 − (NO level of test samples/NO levels of vehicle-treated control)] × 100. The IC50 values were calculated through nonlinear regression analysis using TableCurve 2-D v5.01 (Systat Software Inc., San Jose, CA, USA). At the same time, MTT assays were also performed to test cell viability. MTT solution (final concentration of 500 μg/mL) was added to the cells, and they were incubated for 4 h at 37 °C. The culture media was removed, and the remaining dyes were dissolved in DMSO. The absorbance of each well was measured at 570 nm using a VersaMax ELISA microplate reader (Molecular Devices, Sunnyvale, CA, USA). The percent survival was determined by comparison with a control group (LPS+).
Figure S54. Inhibition of NO production of herqueinone compounds purified from Penicillium herquei. The effects of compounds on NO production in RAW 264.7 cells. (A) Cells were pre-treated with compounds (20 uM) and AMT (0.2 uM) for 1 h and LPS (1 ug/mL ) was added further incubated for 18 h . The amount of iNOS was examined by Griess reaction. (B) After iNOS level was measured, cell viability was tested using MTT assay. The values are expressed as the means ± SD of triplicate tests. (C) RAW 264.7 cells were pretreated with various concentrations of compound 7 and AMT (0.2 uM) for 1 h, and LPS (1 ug/mL) was added further incubated for 18 h. The amount of iNOS was examined b y Griess reaction. (D) Cell viability was tested by MTT assay. The values are expressed as the means ± SD of triplicate tests.

cytotoxicity assay, A549 = format: cell-based; settings: human, A549 cells
Method: as §1

hBM-MSCs = experiment: adiponectin production assay during adipogenesis (ELISA); format: cell-based; settings: Homo sapiens
Method: Human bone marrow-mesenchymal stem cells (hBM-MSCs) were purchased from Lonza, Inc. (Walkersville, MD, USA) and cultured in low-glucose (1 g/L) DMEM supplemented with 10% FBS, penicillin-streptomycin, and Glutamax^TM (Invitrogen, Carlsbad, CA, USA). To induce adipogenesis, the cell growth medium was replaced with high-glucose (4.5 g/L) DMEM supplemented with 10% FBS, penicillin-streptomycin, 10 μg/mL insulin, 0.5 μM dexamethasone, and 0.5 mM 3-isobutyl-1-methylxanthine (IBMX) (IDX conditions). IBMX, pioglitazone, and aspirin were purchased from Sigma-Aldrich (St. Louis, MO, USA). hBM-MSCs were stained with 0.2% oil red O (ORO) reagent for 10 min at 24 °C, and then washed with H2O four times. Following a 10-min elution with isopropanol, the absorbance was measured at 500 nm using a spectrophotometer. To visualize the nucleus, the hBM-MSCs were counterstained with hematoxylin reagent for 2 min and then washed twice with H2O. The level of adipocyte differentiation was observed and counted using an inverted phase microscope. A Quantikine immunoassay kit (R&D Systems, Minneapolis, MN, USA) was used for quantitative determination of adiponectin in the cell culture supernatants.
Figure S56. PPARγ binding and adiponectin secretion -promoting activities of herqueinone compounds purified from Penicillium herquei. (A) TR-FRET based competitive PPARγ binding assays were performed for herqueinone compounds 1-11. (B) Ki values for compounds 1, 3, 4, 7, 8 and 9 were calculated based on the Cheng and Prusoff analysis. (C) Herqueinone compounds were added to the IDX condition when adipogenesis was induced in hBM-MSCs. On the fifth day, the cell culture supernatants were harvested.
ELISA was performed to measure the level of adiponectin. Positive controls were pioglitazone and aspirin.
(D) The concentration dependency of herqueinone compounds 1, and 9 on adiponectin secretion-promoting activity was determined. Values represent means ± SD (n=3); * p ≤ 0.05 and ** p ≤ 0.01.
(1 picture or pasted object on this page, not shown here)

[1] = Mus musculus, RAW264.7, LPS 1 μg/mL
[2] = IDX conditions, read-out: IC50 values, adiponectin secretion-promoting effects
[3] = adiponectin secretion, Table S1, read-out: EC50 hBM-MSC(B7)

SMILES	IC50 (cytotoxicity assay, K562) [µM]	IC50 (HUVECs; Homo sapiens, HUVEC) [µM]	IC50 (RAW 264.7 cells; [1]) [µM]	IC50 (cytotoxicity assay, A549) [µM]	EC50 (hBM-MSCs; [2]) [µM]	EC50 (hBM-MSCs; [3]) [µM]	IC50 (HUVECs) [µM]	IC50 (RAW 264.7 cells; LPS 1 μg/mL) [µM]
Cc1cc(O)c2c3c(c(O)c4c(c13)O[C@@H](C)C4(C)C)C(=O)OC2=O [Compound 10, sclerodin]	> 10	> 40	> 20	> 10	–	–	–	–
CC(=O)CC1(O)C(=O)c2c(O)cc(C)c3c4c(c(O)c(c23)C1=O)C(C)(C)[C@@H](C)O4 (stereo partly shown) [Compound 7, acetone adduct of the triketone]	> 10	> 40	3.2	> 10	–	–	–	–
COc1c(O)c2c3c(c1O)C(=O)[C@@]1(O)C(=C3C(C)=CC2=O)O[C@@H](C)C1(C)C [Compound 9, isoherqueinone]	> 10	> 40	> 20	> 10	39.7	39.7	–	–
CC(=O)CC1(O)C(=O)C2=c3c(c(O)cc(C)c3=C3O[C@H](C)C(C)(C)[C@]3(O)C2=O)C1=O (single isomer, unassigned) [Compound 4, Oxopropylisoherqueinone A]	> 10	> 40	> 20	> 10	–	–	–	–
CC(=O)CC1(O)C(=O)C2=c3c(c(O)cc(C)c3=C3O[C@H](C)C(C)(C)[C@]3(O)C2=O)C1=O (stereo partly shown) [Compound 5, Oxopropylisoherqueinone B]	–	–	–	–	–	–	> 40	> 20
Cc1cc(O)c2c3c(c(O)c4c(c13)O[C@@H](C)C4(C)C)C(=O)C(=O)O2 [Compound 11, scleroderolide]	> 10	> 40	> 20	> 10	–	–	–	–
COc1c(O)c2c3c(c1O)C(=O)[C@]1(O)C(=C3C(C)=CC2=O)O[C@H](C)C1(C)C [Compound 3, ent-Isoherqueinone]	> 10	> 40	> 20	> 10	–	–	–	–
CC1CCN=C(N)S1 (stereo not shown) [AMT, reference compound]	–	–	–	–	–	–	–	0.2
COc1c(O)c2c3c(c1O)C(=O)[C@@]1(O)C(=C3C(C)=C(O)C2=O)O[C@@H](C)C1(C)C [Compound 1, ent-Peniciherqueinone]	> 10	> 40	> 20	> 10	57.5	57.5	–	–
CCN(CC)CCNC(=O)c1c(C)[nH]c(/C=C2\C(=O)Nc3ccc(F)cc32)c1C [Sunitinib, reference compound]	–	1.5	–	–	–	–	–	–
COc1c(O)c2c3c(c1O)C(=O)[C@@]1(O)C(=C3C(C)=CC2=O)O[C@H](C)C1(C)C [Compound 8, herqueinone]	> 10	> 40	> 20	> 10	–	–	–	–
Cc1cc(O)c2c3c1=C1O[C@@H](C)C(C)(C)[C@@]1(O)C(=O)C=3C(=O)OC2=O [Compound 6, 4-Hydroxysclerodin]	> 10	20.9	> 20	> 10	–	–	–	–
CC1=C(O)C(=O)c2c(O)c(O)c(O)c3c2C1=C1O[C@@H](C)C(C)(C)[C@@]1(O)C3=O [Compound 2, 12-Hydroxynorherqueinone]	> 10	> 40	> 20	> 10	–	–	–	–
CCc1ccc(CCOc2ccc(CC3SC(=O)NC3=O)cc2)nc1 (stereo not shown) [Pioglitazone, pioglitazone, reference compound]	–	–	–	–	–	0.69	–	–
